One test relates to human α2β3γ2 GABAARs. Put plainly: In vitro electrophysiological recording assay (automated patch-clamp), α2-GABAAR relative efficacy. The class given is cell-based. The settings on record: % efficacy normalised to diazepam; GABA EC10-20; concentration generally >= 100 times Ki. The procedure:
The efficacy of modulators was evaluated using the automated patch-clamp platforms QPatch16 (Sophion, Copenhagen, Denmark) or SyncroPatch 384PE (Nanion, Germany).
For QPatch electrophysiology testing L(tk^−) cells stably expressing human α1β3γ2, α2β3γ2, α3β3γ2, α5β3γ2 GABAARs were used. HEK293 cells stably expressing human α1β3γ2L, α2β3γ2L, α3β3γ2L and α5β3γ2L GABAARs were used for the SyncroPatch 384PE experiments.
All experiments were carried out at room temperature (20-22° C.) using a standard whole cell procedure and physiological solutions. Gigaseals were formed upon execution of a combined suction/voltage protocol with subsequent increased suction leading to the whole-cell configuration.
The currents recorded were acquired at either 1 KHz or 2 KHz and filtered using a Bessel filter. Whole-cell currents were measured at a holding potential of-65 mV (QPatch) or −80 mV (SyncroPatch).
For QPatch experiments, the extracellular solution contained of: 145 mM NaCl, 4 mM KCl, 1 mM MgCl2, 2 mM CaCl2), 10 mM HEPES, 10 mM D-glucose (pH 7.4), and the intracellular solution consisted of: 96 mM KCl, 28 mM CsCl, 25 mM KOH, 4.3 mM CaCl2), 1.4 mM MgCl2, 10 mM EGTA, 10 mM HEPES, 3 mM MgATP (pH 7.2). The osmolarities of the extracellular and intracellular solutions were 305 and 295 mOsm respectively.
For SyncroPatch experiments, the extracellular recording solution contained: 140 mM NaCl, 4 mM KCl, 2 mM CaCl2), 1 mM MgCl2, 10 mM HEPES, 5 mM glucose (pH 7.4 with NaOH and osmolarity of c. 300-310 mOsm). The intracellular recording solution consisted of: 90 mM KCl, 50 mM KF, 1.5 mM MgCl2, 11.1 mM EGTA and 10 mM HEPES (pH 7.2 with KOH and osmolarity of c. 300 mOsm). 2 mM of NaATP was added to the intracellular solution on the day of testing.
The effects of modulators were evaluated in the presence of a submaximal GABA concentration, giving typically less than 30% activation of the response elicited by a saturating GABA concentration. To check and ensure baseline current stability before compound addition, two to five consecutive applications of GABA EC10-20 separated by wash steps were performed before compound addition. The test compound was applied 1 min at least prior to co-application with GABA EC10-20. Following a further wash step, a saturating concentration of GABA was applied at the end of each recording, allowing the accurate evaluation for each cell of the percentage baseline activation elicited by the submaximal GABA applied.
The compounds were first dissolved in DMSO as a 10 mM stock and then further diluted to the testing concentrations so that the final DMSO concentration in the extracellular recording solution was 0.1% (QPatch) or 0.2% (SyncroPatch).
The % efficacy of modulators was determined from the GABA elicited currents recorded in the presence and absence of the test compound, using the formula:
[((compound peak current−leak)−(GABA peak current-leak))/(GABA peak current−leak)]*100,
where ‘leak’ is the leak baseline current at the holding potential, ‘compound peak current’ is the current elicited by co-application of compound and GABA, and ‘GABA peak current’ is the current elicited by GABA alone at the last GABA application before compound addition. The results were presented as ‘relative efficacy’ for each compound generally at a concentration equal or higher than 100 times their determined Ki. The relative efficacy of a compound was calculated by normalising its % efficacy to the corresponding % efficacy of diazepam that was separately determined.
For orientation: Patch clamp records ionic current or voltage across a cell membrane.

Test [1] has as its target human α2β3γ2 GABAARs (benzodiazepine site) (Homo sapiens (Human), UniProt P18507+P47869). Briefly: In vitro radioligand binding assay ([3H]Ro15-1788 displacement), α2-GABAAR Ki. The procedure: The affinity (Ki) of compounds for the benzodiazepine site of human recombinant GABAARs was measured by their ability to inhibit the binding of the selective benzodiazepine antagonist [^3H]Ro15-1788 ([^3H] flumazenil).
Mouse L(tk^−) cells stably expressing human α1β3γ2, α2β3γ2, α3β3γ2, α5β3γ2 GABAARs were generated by transfection of the individual subunits in the dexamethasone-inducible expression vector pMSGneo in mouse L(tk^−) cells (Hadingham et al., 1993, Mol. Pharmacol. 43:970-975 and 1993, Mol. Pharmacol. 44:1211-1218).
L(tk^−) cells stably expressing human α1β3γ2, α2β3γ2, α3β3γ2, α5β3γ2 GABAARs were maintained in DMEM F12 medium supplemented with 10% Foetal Bovine Serum, 1% Penicillin/Streptomycin and 1 mg/mL Geneticin G418 in an incubator at 37° C. with a humidified atmosphere with 5% CO2. Dexamethasone was added to the culture medium to induce GABAAR expression.
L(tk−) cells were harvested and membranes were prepared for each receptor combination in either TE buffer (10 mM Tris·CI/0.1 mM EDTA, pH 7.5) or phosphate buffer (K2PO4 10 mM, pH 7.0) (Hadingham et al. (1992) Proc. Natl. Acad. Sci. USA; 89 (14): 6378-82). Protein concentration, receptor expression and the Kd of [^3H]Ro15-1788 were determined before Ki value of the compounds were evaluated. For Kd evaluation, saturation binding curves were obtained by incubating membrane with various concentrations of [^3H]Ro15-1788 (82.5 Ci/mM), with nonspecific binding measured in the presence of 1-3 μM TP003.
For Ki evaluation, cell membranes were incubated with 4 nM [^3H]Ro15-1788 along with a range of concentrations of test compound. Nonspecific binding was determined using 1-3 μM TP003. All incubations were performed for 1 hour at 4° C. in assay buffer. The total assay volume was 0.5 mL, containing 40 μg/well α1β3γ2, 30 μg/well α2β3γ2, 40 μg/well α3β3γ2 and 30 μg/well for α5β3γ2 of membrane protein. Incubations were terminated by filtration and washing with ice cold Tris-HCl buffer (50 mM, pH=7.4) over Whatman GF/B filters and the radioactivity of the filters was measured using liquid scintillation counting.
The % inhibition of [^3H]Ro15-1788 binding was plotted as a function of compound concentration and the IC50 calculated. From the IC50, the affinity (Ki) was calculated using the method of Cheng and Prusoff using the Kd values obtained for [^3H]Ro15-1788.

Where [2] appears, read: L(tk-) cell membranes, 4 nM [3H]Ro15-1788, read-out: α2-GABAAR Ki.

Experimental findings from patent US20250197368A1 (priority 2020, published 2025) are described below.

The term Ki denotes the dissociation constant of the complex between target and ligand, obtained from inhibition or displacement.

Where two headings read alike, the source gives them in different places.

human α2β3γ2 GABAARs (benzodiazepine site), sequence (P47869 29-451): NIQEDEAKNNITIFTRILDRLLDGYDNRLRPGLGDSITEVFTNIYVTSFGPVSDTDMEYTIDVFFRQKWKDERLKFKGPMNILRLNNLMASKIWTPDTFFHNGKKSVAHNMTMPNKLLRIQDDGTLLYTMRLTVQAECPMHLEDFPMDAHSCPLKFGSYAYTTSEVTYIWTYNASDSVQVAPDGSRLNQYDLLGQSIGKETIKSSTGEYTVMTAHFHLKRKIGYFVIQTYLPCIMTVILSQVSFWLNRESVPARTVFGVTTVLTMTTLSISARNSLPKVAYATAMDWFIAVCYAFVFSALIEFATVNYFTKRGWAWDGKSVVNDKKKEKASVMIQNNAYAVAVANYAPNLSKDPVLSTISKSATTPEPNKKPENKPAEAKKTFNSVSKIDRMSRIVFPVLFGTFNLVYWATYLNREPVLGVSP
human α2β3γ2 GABAARs (benzodiazepine site), sequence (P28472 26-473 partner): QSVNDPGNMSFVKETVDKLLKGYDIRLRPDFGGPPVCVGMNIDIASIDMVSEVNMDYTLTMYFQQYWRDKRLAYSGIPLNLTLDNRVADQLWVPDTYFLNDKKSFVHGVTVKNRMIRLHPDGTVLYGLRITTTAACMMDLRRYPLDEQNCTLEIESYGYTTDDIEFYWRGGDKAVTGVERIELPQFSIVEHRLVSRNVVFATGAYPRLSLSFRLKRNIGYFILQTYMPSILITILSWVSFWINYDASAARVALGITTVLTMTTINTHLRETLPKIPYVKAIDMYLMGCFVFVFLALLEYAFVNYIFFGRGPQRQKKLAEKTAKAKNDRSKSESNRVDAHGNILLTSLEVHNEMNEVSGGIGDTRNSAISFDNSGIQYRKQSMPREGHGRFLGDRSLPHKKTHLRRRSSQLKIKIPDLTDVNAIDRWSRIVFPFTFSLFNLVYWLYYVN
human α2β3γ2 GABAARs (benzodiazepine site), sequence (P18507 40-475): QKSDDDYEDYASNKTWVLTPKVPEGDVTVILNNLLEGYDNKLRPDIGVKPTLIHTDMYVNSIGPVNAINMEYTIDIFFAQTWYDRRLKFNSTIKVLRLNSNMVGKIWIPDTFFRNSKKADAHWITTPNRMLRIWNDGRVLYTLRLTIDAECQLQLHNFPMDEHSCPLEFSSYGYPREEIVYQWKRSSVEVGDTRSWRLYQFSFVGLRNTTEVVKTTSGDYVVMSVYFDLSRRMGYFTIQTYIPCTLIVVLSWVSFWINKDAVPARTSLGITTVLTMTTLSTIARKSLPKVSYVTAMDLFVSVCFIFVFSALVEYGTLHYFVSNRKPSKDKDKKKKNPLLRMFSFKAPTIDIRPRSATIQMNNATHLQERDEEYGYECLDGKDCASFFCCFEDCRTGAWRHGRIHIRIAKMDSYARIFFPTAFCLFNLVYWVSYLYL

As for `CCCNC(=O)c1c(N)c2cccc(-c3cc(OCc4cc[nH]n4)ccc3F)c2[nH]c1=O` [Example 127, 4-Amino-8-[2-fluoro-5-(1H-pyrazol-3-ylmethoxy)phenyl]-2-oxo-N-propyl-1H-quinoline-3-carboxamide], the “α2-GABAAR Relative Efficacy (vs. Diazepam)” value (shortened to “α2-GABAAR Relative Efficacy”) in the test with human α2β3γ2 GABAARs was 0.24. The Ki in test [1] was 0.78 nM.
For `CCCNC(=O)c1c(N)c2cccc(-c3cc(Cc4ncn(CC)n4)ccc3F)c2[nH]c1=O` [Example 145, 4-Amino-8-(5-((1-ethyl-1H-1,2,4-triazol-3-yl)methyl)-2-fluorophenyl)-2-oxo-N-propyl-1,2-dihydroquinoline-3-carboxamide], in that order: 0.28 and 1.29 nM.
For the compound `CCCNC(=O)c1c(N)c2cccc(-c3cccc(OC)c3)c2[nH]c1=O` [Example 48, 4-Amino-8-(3-methoxyphenyl)-2-oxo-N-propyl-1H-quinoline-3-carboxamide], the “α2-GABAAR Relative Efficacy” value in the test with human α2β3γ2 GABAARs was 0.39. The inhibition constant (Ki) in test [1] is 1.84 nM.
As to `COc1ccncc1-c1cccc2c(N)c(C(=O)NCC3CC3)c(=O)[nH]c12` [Example 59, 4-Amino-N-(cyclopropylmethyl)-8-(4-methoxy-3-pyridyl)-2-oxo-1H-quinoline-3-carboxamide], the “α2-GABAAR Relative Efficacy” value with human α2β3γ2 GABAARs came out at 0.27. Moreover, in test [1], the Ki turned out to be 2.01 nM.
Consider `CCCNC(=O)c1c(N)c2cccc(-c3cc(OCc4ccc(C)cn4)ccc3F)c2[nH]c1=O` [Example 95, 4-Amino-8-[2-fluoro-5-[(5-methyl-2-pyridyl)methoxy]phenyl]-2-oxo-N-propyl-1H-quinoline-3-carboxamide], for which the “α2-GABAAR Relative Efficacy” value in the test on human α2β3γ2 GABAARs was found to be 0.22. Moreover, the Ki in test [1] was found to be 0.44 nM.
As to `COc1ccncc1-c1cccc2c(N)c(C(=O)NCC(C)C)c(=O)[nH]c12` [Example 60, 4-Amino-N-isobutyl-8-(4-methoxy-3-pyridyl)-2-oxo-1H-quinoline-3-carboxamide], the “α2-GABAAR Relative Efficacy” value with human α2β3γ2 GABAARs is 0.65. Further, the Ki in test [1] amounted to 15.4 nM.
Turning to `Cc1nn(C)cc1-c1cccc2c(N)c(C(=O)NCC3CC3)c(=O)n(C)c12` [Example 81, 4-Amino-N-(cyclopropylmethyl)-8-(1,3-dimethylpyrazol-4-yl)-1-methyl-2-oxo-quinoline-3-carboxamide], the “α2-GABAAR Relative Efficacy” value in the test with human α2β3γ2 GABAARs turned out to be 0.81. For the same compound, the Ki in test [1] came to 2.19 nM.
With `CCCNC(=O)c1c(N)c2ccnc(-c3cnccc3OC)c2[nH]c1=O` [Example 84, 4-Amino-8-(4-methoxypyridin-3-yl)-2-oxo-N-propyl-1,2-dihydro-1,7-naphthyridine-3-carboxamide], in test [1], the Ki turned out to be 75.5 nM.
Regarding `COc1ccncc1-c1cccc2c(N)c(C(=O)NC3COC3)c(=O)[nH]c12` [Example 58, 4-Amino-8-(4-methoxy-3-pyridyl)-N-(oxetan-3-yl)-2-oxo-1H-quinoline-3-carboxamide], the inhibition constant Ki in test [1] (setting [2]) is 154 nM.
Same read-out and setting: the same measure for `Cc1nn(C)cc1-c1cccc2c(N)c(C(=O)NCCC#N)c(=O)[nH]c12` [Example 74, 4-Amino-N-(2-cyanoethyl)-8-(1,3-dimethylpyrazol-4-yl)-2-oxo-1H-quinoline-3-carboxamide]: > 500 nM; for `Nc1c(C(=O)NC2CC2)c(=O)[nH]c2c(-c3cnccc3OC(F)F)cccc12` [Example 70, 4-Amino-N-cyclopropyl-8-[4-(difluoromethoxy)-3-pyridyl]-2-oxo-1H-quinoline-3-carboxamide]: > 500 nM.
Consider `CCCNC(=O)c1c(N)c2cccc(-c3cnccc3OC)c2n(C)c1=O` [Example 77, 4-Amino-8-(4-methoxy-3-pyridyl)-1-methyl-2-oxo-N-propyl-quinoline-3-carboxamide], for which the Ki in test [1] stood at 2.77 nM.
Take `COc1ccncc1-c1cccc2c(N)c(C(=O)NCC(F)F)c(=O)[nH]c12` [Example 61, 4-Amino-N-(2,2-difluoroethyl)-8-(4-methoxy-3-pyridyl)-2-oxo-1H-quinoline-3-carboxamide]: the Ki in test [1] (setting [2]) turned out to be 107 nM.
With `CNC(=O)c1c(N)c2cccc(-c3cnccc3OC)c2[nH]c1=O` [Example 55, 4-Amino-8-(4-methoxy-3-pyridyl)-N-methyl-2-oxo-1H-quinoline-3-carboxamide], the Ki in test [1] (setting [2]) came to 159 nM.
As to `Cc1nn(C)cc1-c1cccc2c(N)c(C(=O)NCC3COC3)c(=O)[nH]c12` [Example 72, 4-Amino-8-(1,3-dimethyl-1H-pyrazol-4-yl)-N-(oxetan-3-ylmethyl)-2-oxo-1,2-dihydroquinoline-3-carboxamide], the Ki in test [1] (setting [2]) is > 500 nM.
For `COc1ccncc1-c1cccc2c(N)c(C(=O)NCC(C)(F)F)c(=O)[nH]c12` [Example 65, 4-Amino-N-(2,2-difluoropropyl)-8-(4-methoxy-3-pyridyl)-2-oxo-1H-quinoline-3-carboxamide], the Ki in test [1] amounted to 55.2 nM.
For `COCCNC(=O)c1c(N)c2cccc(-c3cnccc3OC(F)F)c2[nH]c1=O` [Example 71, 4-Amino-8-[4-(difluoromethoxy)-3-pyridyl]-N-(2-methoxyethyl)-2-oxo-1H-quinoline-3-carboxamide], the Ki in test [1] (setting [2]) is > 500 nM.
In the case of `Cc1nn(C)cc1-c1cccc2c(N)c(C(=O)NCCCN(C)C)c(=O)[nH]c12` [Example 75, 4-Amino-N-[3-(dimethylamino)propyl]-8-(1,3-dimethylpyrazol-4-yl)-2-oxo-1H-quinoline-3-carboxamide], the Ki in test [1] (setting [2]) came out at 171 nM.
Consider `COc1ccncc1-c1cccc2c(N)c(C(=O)NC3CC3)c(=O)[nH]c12` [Example 57, 4-Amino-N-cyclopropyl-8-(4-methoxy-3-pyridyl)-2-oxo-1H-quinoline-3-carboxamide], for which the Ki in test [1] came out at 73.3 nM.
Same read-out and setting: in the case of `COc1ccncc1-c1cccc2c(N)c(C(=O)NCCCO)c(=O)[nH]c12` [Example 66, 4-Amino-N-(3-hydroxypropyl)-8-(4-methoxy-3-pyridyl)-2-oxo-1H-quinoline-3-carboxamide] it was 18.6 nM.
